{"source": "patent US11661399B2", "about": "“Methods and compositions for preventing degradation of dimethyl trisulfide” (priority 2018, dated 2023)", "key": {"[1]": {"assay": "DMTS degradation over 14 days at 54° C. (gas chromatograph, Day 0 vs Day 14)", "type": "physicochemical", "details": "water + MDEA, pH lowered to 2, two weeks at 54° C.", "description": "(§1) EPA accelerated stability guidelines call for storage of compositions at 54° C. for two weeks. This is considered to be the equivalent to storing compositions for one year at room temperature. These conditions were applied to the following studies to ensure that DMTS can be formulated in compliance with EPA guidelines.\nIn this example, various concentrations of DMTS in water, ethanol (EtOH), and propylene glycol (PG), with and without MDEA, were prepared and tested for degradation. The pH was adjusted to 2, 7, or 12+/−0.5 with sodium hydroxide or hydrochloric acid. The DMTS concentration was measured by gas chromatograph on Day 0 and Day 14 and the percent degradation calculated from those values. The formulas were capped and stored at 54° C. for two weeks."}, "[2]": {"assay": "Accelerated stability storage: DMTS recovery over time in solution", "type": "physicochemical", "details": "for DMTS degraded: 14 days at 54° C.", "description": "as §1\n120 ppm DMTS only is compared to 120 ppm DMTS with 420 ppm MDEA. Using the accelerated conditions described above, DMTS in water was still observed to be degrading over time.\nVarious conditions were modified to improve the overall stability of DMTS in solution. First, the pH was lowered by buffering the solution. It was predicted that a lower pH might prevent the catalyzation of DMTS breakdown. The solution was buffered to a pH of 6 and compared to a control. 32 ppm DMTS was stored in glass at 40° C. for 7 days, then stored at 54° C. for an additional 15 days.\nDMDS was added to the DMTS in this example. It was hypothesized that if the breakdown pathway of DMTS to DMDS exists in equilibrium, additional DMDS would stabilize the breakdown pathway. DMDS was added to formulas containing DMTS only and DMTS with MDEA.\nIt was hypothesized that propylene glycol (PG) could have a similar effect. Samples were prepared with 8 ppm and 4 ppm DMTS in water as controls. Experimental samples included 8 ppm DMTS with 1% PG or 10% PG. A sample was also prepared in an HDPE container that was not fluorinated.\nThis example examined the effects of fluorination of HDPE containers on the stability of DMTS. Stability of DMTS was recorded for storage at 54° C. over the course of 14 days. Glass containers were used as a control. HDPE containers were tested having no fluorination (F0), Level 3 fluorination (F3), and Level 5 fluorination (F5). Samples of DMTS were prepared to a dilution of 8 ppm DMTS in water with 10% PG.\nGiven the improvements seen with 10% PG used as solvent, higher concentrations of PG were tested. 0.28% DMTS in 100% PG was tested for stability over two weeks at 54° C. Storage in glass containers was compared to HDPE containers with Level 3 fluorination.\nOther solvents were tested without dilution with water. Samples of 0.03% DMTS were prepared in 100% solvent. The solvents tested were ethanol in a glass container, PG in a glass container, PG in a non-fluorinated HDPE container, and glycerol in a glass container.\nIn this example, 0.03 wt-% (300 ppm) DMTS was dissolved into solvent consisting of 100% ethanol (EtOH) or 100% propylene glycol (PG). This study is very similar to Example 7. Recovery of DMTS was recorded over the course of 14 days. The DMTS solutions were stored in the accelerated conditions of 54° C. Less than 10% DMTS was degraded over the course of 14 days for both EtOH and PG.\nIn this example, a lower concentration of DMTS was used to produce a use composition. 32 ppm DMTS was dissolved in either a 100% water solution or a combination of 10% PG and 90% water. The same accelerated conditions were used for 14 days. Over 70% of DMTS was recovered with water as the only solvent. However, using a 10% PG solution in water improved DMTS stability, providing greater than 80% recovery.\nEven lower concentrations of DMTS were examined to determine if further dilution of the concentrate affects stability of DMTS. Solutions including 8 ppm DMTS were prepared. DMTS was dissolved in water, a solution of 1 wt-% PG in water, and a solution 10 wt-% PG in water. […] The reduced quantity of DMTS did have a slight negative effect on stability.\nFinally, solutions including 1 ppm DMTS were examined to determine if use compositions including small amounts of DMTS can remain stable over the course of the two week testing period at 54° C. […] Hard water had the greatest negative effect on DMTS stability."}}}
{"compound": "CSSSC", "note": "[DMTS, dimethyl trisulfide]", "values": [{"measurement": "DMTS degraded", "setting": "[1]", "value": 20, "unit": "%"}, {"measurement": "DMTS remaining in solution", "setting": "[2]; 1 ppm DMTS in hard water, day 14, 54° C.", "value": "no DMTS remained"}, {"measurement": "DMTS stability (in words)", "setting": "[2]; 8 ppm DMTS in water with 10% PG, HDPE Level 5 fluorination (F5), 54° C., 14 days", "value": "best results which were similar to the glass containers"}, {"measurement": "DMTS degradation (in words)", "setting": "[2]; 8 ppm DMTS in water with 10% PG, non-fluorinated HDPE (F0), 54° C., 14 days", "value": "fastest rates of DMTS degradation"}, {"measurement": "DMTS stability (in words)", "setting": "[2]; 8 ppm DMTS with 1% PG or 10% PG vs water controls", "value": "Some improvement"}, {"measurement": "DMTS recovered", "setting": "[2]; 32 ppm DMTS in 100% water, 14 days accelerated conditions", "value": "Over 70%"}, {"measurement": "DMTS degradation (in words)", "setting": "[2]; 32 ppm DMTS in solution with ethanol, glass, 40° C. 7 days then 54° C. 15 days", "value": "least degradation"}, {"measurement": "DMTS stability (in words)", "setting": "[2]; 32 ppm DMTS, N2 blanket and soft water samples, glass, 40° C. 7 days then 54° C. 15 days", "value": "least stable conditions"}, {"measurement": "DMTS breakdown (in words)", "setting": "[2]; 32 ppm DMTS, pH 6 buffer, glass, 40° C. 7 days then 54° C. 15 days", "value": "faster breakdown than the control"}, {"measurement": "DMTS degradation over time (in words)", "setting": "[2]; 120 ppm DMTS only in water vs 120 ppm DMTS with 420 ppm MDEA, accelerated conditions", "value": "degradation was slowed significantly"}, {"measurement": "DMTS degraded", "setting": "[2]; 300 ppm DMTS in 100% EtOH", "value": "Less than 10%"}, {"measurement": "DMTS degraded", "setting": "[2]; 300 ppm DMTS in 100% PG", "value": "Less than 10%"}, {"measurement": "DMTS breakdown (in words)", "setting": "[2]; DMDS added to DMTS only and DMTS with MDEA formulas", "value": "did not slow down the breakdown of DMTS"}, {"measurement": "DMTS degradation (in words)", "setting": "[2]; sample in non-fluorinated HDPE container, 54° C.", "value": "significantly faster degradation"}]}
